Measurements published in US8114911B2, “Prostaglandin compounds for the treatment of obesity” (Sucampo AG, priority 2003, dated 2012).
Entries after “also recorded” stand apart in the source; their conditions may differ.

Experiment: Body weight change in volunteers after 21 days of oral test capsules
Format: in vivo, human
Details: oral capsules before meals, 24, 48 or 72 μg of test substance per day for 21 days, body weight 3 weeks after initiation vs before, placebo control group increased
Method: 13,14-dihydro-15-keto-16,16-difluoro-PGE1 was used as the test substance. Test capsule for oral administration containing 24 μg of the test substance and placebo capsule made from inert ingredients which was identical to the test capsule were prepared.
Volunteers were divided into 4 groups. The test groups received 24, 48 and 72 μg of the test substance per day respectively and the control group received the placebo. All volunteers were instructed to take one capsule before each meal (morning-, day- and evening-time) everyday for 21 days. Test group I (27 volunteers) received 24 μg of the test substance per day by taking the test capsule at the morning time and the placebo capsule at each of the day and evening times; test group II (32 volunteers) received 48 μg of the test substance per day by taking the test capsule at each of the morning and evening times and the placebo capsule at the day time; test group III (32 volunteers) received 72 μg of the test substance by taking the test capsule three times per day. Control group (33 volunteers) received the placebo capsule every time. Volunteers were instructed to take each capsule with 8 ounces of water prior to eating a meal. Body weight was measured before and 3 weeks after the initiation of the administration.

CCCCC(F)(F)C(=O)CCC1C(O)CC(=O)C1CCCCCCC(=O)O (stereo not shown) [13,14-dihydro-15-keto-16,16-difluoro-PGE1]
changes of body weight from the pre-values: body weight reductions were observed in all test groups; also recorded: decreased in a dose dependent manner
